Experimental data taken from US8247552B2, “Analogs of dehydrophenylahistins and their therapeutic use” (Nereus Pharmaceuticals, Inc., priority 2002, dated 2012).
In brackets after ≈: the same amount, converted by molar mass. Where two headings read alike, the source gives them in different places.

Assays:
Epidermophyton floccosum = experiment: Antifungal susceptibility testing (NCCLS M38-A), MIC/MFC; assay type: cell-based; details: Table 24, read-out: E. floccosum isolate #2 (column head empty, before MFC)
Procedure: (§1) Specifically, disclosed compounds were evaluated alongside commercially available microtubulin inhibitors as well as recognized antifungal agents. […].
(§2) Microorganisms against which these compounds were tested included: Candida albicans, Candida glabrata, Aspergillus fumigatus, Trichophyton rubrum, Trichophyton mentagrophytes, Epidermophyton floccosum. With the exception of Candida glabrata (one isolate), two isolates of each species were tested.
(§3) Drug concentrations were 0.03-16 μg/ml for the investigational compounds, 0.015-8 μg/ml for itraconazole and griseofulvin.
(§4) The minimum lethal concentration (MLC) was determined by plating […] from the MIC concentration and each concentration above the MIC. […] When a MIC was obtained, a minimum fungicidal concentration (MFC) was determined to assess the fungistatic/fungicidal nature of the compound. […] The compound is scored as fungistatic if the cells are able to resume growth and fungicidal if no regrowth is possible because the compound had killed the organisms.

[1] = system: N202 mammary tumor vasculature; experiment: Murine syngeneic pseudo-orthotopic breast cancer model, dorsal skinflap chamber, vascular targeting
Description: A murine syngeneic “pseudo-orthotopic” breast cancer model was used to address these issues. […] To create the “pseudo-orthotopic milieu,” the coverslip of a dorsal skinflap chamber was removed and small pieces of mammary fatpad from donor mice were implanted into the chamber. On top of the fatpad graft, tumor spheroids containing N202 mammary tumor cells transduced with Histone (H2B)-green fluorescent protein (GFP) were applied. The use of H2B-GFP transduced cells allows for visualizing tumor growth and monitoring mitosis and apoptosis.
Fluorescence video microscopy allows for the relatively non-invasive study of tumor microcirculation in conscious mice.
Tumor area, blood flow rate, and vascular density within and surrounding the tumor were visualized. Real-time observations were recorded at various time-points using still photos and video microscopy.

[2] = system: P22 rat sarcoma tumor blood flow; experiment: Blood flow in the P22 rat sarcoma model with 125I-IAP; assay type: in vivo; details: 15 mg/kg IP
Procedure: In contrast, blood flow in non-tumor tissues was affected to a much lesser extent at 1 hour (see FIG. 35).

HuVEC cells = experiment: Microtubule (tubulin) depolymerization, α-tubulin staining; details: for microtubule depolymerization in HuVEC cells: 2 μM, thirty minutes exposure
Procedure: The plates were returned to the incubator for 2 days.
20 mM stock solutions of compounds were prepared in 100% DMSO and stored at −80° C. 400× concentrated dilutions of the compounds were prepared in 100% DMSO. 5 μl volumes of the dilutions were added to individual wells resulting in a final concentration of 20 nM. […] The plates were returned to the incubator for 30 minutes.
The cells were rinsed in dPBS before fixation in 10% (v/v) neutral buffered formalin for 10 minutes at room temperature. Following fixation, α-tubulin was visualized by indirect immunofluorescence. Specifically, the cells were permeabilized in 0.2% (v/v) triton X-100/dPBS for 10 minutes. The cells were washed prior to transferring the coverslips to a humidified chamber, the coverslips were blocked for two hours in antibody buffer [2% (w/v) BSA/0.1% (v/v) Tween 20/dPBS]. The coverslips were incubated with 50 μl of 0.1 μg/ml mouse α-tubulin (Molecular Probes) in antibody buffer for 1 hour before washing and incubation with 50 μl of 1 μg/ml goat anti-mouse FITC (Jackson ImmunoResearch Laboratories) for one hour in the dark. Finally, the cells were washed and treated with 2 μg/ml DAPI (Molecular Probes) for 10 minutes before rinsing in H2O and mounting with Vectashield (Vector Labs) mounting media. The cells were imaged using a 60× oil immersion objective on an upright microscope (Olympus BX51). The images were digitally captured using a CCD camera and Magnafire 2.0 software (Olympus). Post image processing was performed in Photoshop Elements 2.0 (Adobe) and in Microsoft Powerpoint.
Human umbilical vein endothelial cells (HuVECs; Cambrex CC2519A) were maintained at subconfluent densities in EGM-2 (Cambrex) media. […] The plates were returned to the incubator for 2 days.
Stock (20 mM) solutions of the test compounds were prepared in 100% DMSO. 400× concentrated dilutions of the compounds were prepared in 100% DMSO. 5 μl volumes of the dilutions were added to individual wells resulting in a final concentration of 200 nM. […] The plates were returned to the incubator for 30 minutes.
The cells were rinsed in dPBS before fixation in 10% (v/v) neutral buffered formalin for 10 minutes at room temperature. Following fixation, α-tubulin was visualized by indirect immunofluorescence. Specifically, the cells were permeabilized in 0.2% (v/v) triton X-100/dPBS for 10 minutes. The cells were washed prior to transferring the coverslips to a humidified chamber, the coverslips were blocked for two hours in antibody buffer (2% (w/v) BSA/0.1% (v/v) Tween 20/dPBS). The coverslips were incubated with 50 μl of 0.1 μg/ml mouse α-tubulin (Molecular Probes) in antibody buffer for 1 hour before washing and incubation with 50 μl of 1 μg/ml goat anti-mouse FITC (Jackson ImmunoResearch Laboratories) for one hour in the dark. Finally, the cells were washed and treated with 2 μg/ml DAPI (Molecular Probes) for 10 minutes before rinsing in H2O and mounting with Vectashield (Vector Labs) mounting media. The cells were imaged using a 60× oil immersion objective on an upright microscope (Olympus BX51). The images were digitally captured using a CCD camera and Magnafire 2.0 software (Olympus). Post image processing was performed in Photoshop Elements 2.0 (Adobe) and in Microsoft Powerpoint.

[3] = system: MCF7 cells (GFP-alpha-tubulin); experiment: Microtubule dynamic instability in living MCF7 cells (time-lapse microscopy); assay type: cell-based, human; details: concentrations effecting 25% or 50% of maximal mitotic block
P22 rat sarcoma = experiment: Tumor necrosis in the P22 rat sarcoma model; assay type: in vivo; details: 7.5 and 15 mg/kg IP, 24 hours post-dose
Description: “A dose-escalation study of the novel vascular-targeting agent, ZD6126, in patients with solid tumors,” Proc Am Soc Clin Oncol 2002; 21:abstract 438; each of which is hereby incorporated by reference in its entirety.

[4] = Physicochemical stability, Z to E migration under light; details: visible light, normal room light
Procedure: The physicochemical stability is one of the unfavorable problems of dehydroPLH. In phenylahistin, since there is no additional olefin structure at the benzyl part, there is no such problem. […] In the cytotoxic assay, some of the compounds migrate to E-form during the incubation, although this migration probably equilibrates at the 1:1 ratio in the case of dehydroPLH. This migration can be controlled.

[5] = system: MES-SA/Dx5 (Taxol resistant) human uterine sarcoma; experiment: Cytotoxicity / growth inhibition in multidrug resistant uterine sarcoma cells; assay type: cell-based; details: for IC50: Table 13, III
Procedure: 1) Human Uterine Sarcoma Tumor Cell Line Pair: MES-SA (Taxol Sensitive) and MES-SA/Dx5 (Taxol Resistant).
HL-60 and HL-60/MX2 cells were both seeded at 5×10^4 cells/well in 90 μl complete media into 96 well plates on the day of compound addition. […] Ten μl volumes of the 10× serial dilutions were added to the test wells in triplicate and the plates returned to the incubator for 48 hours.
Resazurin dye in medium without cells was used to determine the background, which was subtracted from the data for all experimental wells.
The multidrug resistant MES-SA/Dx5 tumor cell line was derived from the human uterine sarcoma MES-SA tumor cell line and expresses elevated P-Glycoprotein (P-gp), an ATP dependent efflux pump. […] Paclitaxel, a known substrate of the P-gp pump was included as a control.

HuVEC monolayer = HuVEC monolayer permeability to FITC-Dextran; assay type: cell-based, human
Procedure: The enhanced permeability of HuVEC cells to a fluorescent-labeled dextran is used as a proxy assay for vascular collapse.
Human umbilical vein endothelial cells (HuVECs; Cambrex CC2519A) were maintained at subconfluent densities in EGM-2 (Cambrex) media. […] For monolayer permeability assays, HuVEC cells were seeded at 1×10^5 cells/ml in EGM-2 media on Fibronectin-coated 3.0 μm Fluoroblok inserts (Becton Dickinson) in 24-well plates. The plates were returned to the incubator for 4 days to allow the cells to reach confluency.
Stock solutions (20 mM) of the test compounds were prepared in 100% DMSO. 10× concentrated serial dilutions of the compounds were prepared in EGM-2. 10 μl volumes of the serial dilutions were added to the test inserts in duplicate resulting in final concentrations ranging from 2 μM to 2 nM.
The final concentration of FITC-Dextran was 1 mg/ml.

[6] = system: HL-60 human acute promyelocytic leukemia (Mitoxantrone-sensitive); experiment: Cytotoxicity / growth inhibition in sensitive leukemia cells; assay type: cell-based; details: Table 20, mean of two independent experiments, 48 hours
Procedure: (§6) HL-60 and HL-60/MX2 cells were both seeded at 5×10^4 cells/well in 90 μl complete media into 96 well plates on the day of compound addition. 20 mM stock solutions of the compounds were prepared in 100% DMSO and stored at −80° C. […] Ten μl volumes of the 10× serial dilutions were added to the test wells in triplicate and the plates returned to the incubator for 48 hours.

[7] = system: HL-60/MX-2 (Mitoxantrone-resistant); experiment: Cytotoxicity / growth inhibition in resistant leukemia cells; assay type: cell-based, human
Procedure: as §6

[8] = system: poly(ADP-ribose) polymerase (PARP) in Jurkat cells; experiment: Cleavage of poly(ADP-ribose) polymerase by western blotting; assay type: cell-based, human; details: 100 nM, 10 hours after exposure
[9] = system: MDA-231 human breast tumor; experiment: MDA-231 Human Breast Tumor Orthotopic (mammary fat pad) Xenograft Model; assay type: in vivo, mice; details: KPU-2 7.5 mg/kg ip q3dx5 with paclitaxel 16 mg/kg ip qdx5; three weeks
Procedure: The animals used were: female nude mice (nu/nu) (MDA-231 study) or B6D2F1 (B16-F10 studies) mice between 5 and 6 weeks of age (˜20 g, Harlan); group size was 10 mice per group unless otherwise indicated.
NPI compounds were administered as monotherapy via the intraperitoneal route at the doses indicated for the individual study; for the combination studies the selected reference chemotherapy agents were injected 15-30 min prior to the NPI compound.
Female nude mice were injected in the mammary fat pad with 2×10^6 MDA-231 cells harvested from in vitro cell culture. When the tumor size reached 5 mm×5 mm (about 14-28 days) the animals were matched into treatment and control groups. The study then proceeded as described for the HT-29 model, using paclitaxel as the standard chemotherapy agent.
In this model unless otherwise noted for the individual study, the test compounds were administered via the intraperitoneal route on Days 1, 4, 8, 11 and 15 (q3dx5); paclitaxel was administered via the intraperitoneal route on Days 1-5 (qdx5).
This model involves the placement of the human tumor tissue into the mouse mammary fat pad, a surrogate of the natural environment. In this manner the possibility of a positive effect due to a specific action on the subcutaneous vascular bed is avoided.

[10] = system: DU-145 human prostate tumor; experiment: DU-145 Human Prostate Tumor Xenograft Model; assay type: in vivo, mice; details: KPU-2 plus taxotere, treatment Days 20-27
Procedure: Selected novel compounds were administered as monotherapy via the intraperitoneal (i.p.) route at the doses indicated for the individual study; for the combination studies the selected reference chemotherapy agents were injected 15-30 min prior to the compound.
When the tumors reached ˜5 mm×5 mm (at about 13-17 days) the animals were matched into treatment and control groups. The remainder of the study proceeded as for the HT-29 model, using taxotere as the standard chemotherapy agent.
In this model unless otherwise noted for the individual study, test compounds were administered via the intraperitoneal route on Days 1, 3, 5, 8 and 11 (q3dx5); taxotere was administered intravenously on Days 1, 3 and 5 (q2dx3).

[11] = system: panel of 60 different kinases; details: ATP 10 μM; four kinases
MCF-7 human breast tumor = experiment: MCF-7 Human Breast Tumor Xenograft Model; assay type: in vivo, mice; details: combination with taxotere
Procedure: Animals used were (exceptions are indicated for individual studies): female nude mice (nu/nu) between 5 and 6 weeks of age (˜20 g, Harlan); group size was 9-10 mice per group unless otherwise indicated.
Female nude mice (˜20 g) were implanted s.c. with 21-day release estrogen (0.25 mg) pellets 24 hours prior to the s.c. implantation with MCF-7 tumor fragments (harvested from s.c. tumors in nude mice hosts). The study then proceeded as described for the HT-29 model, using taxotere as the standard chemotherapy agent.
In this model unless otherwise noted for the individual study, the novel compounds were injected via the intraperitoneal route daily on Days 1-5, inclusive (qdx5); taxotere was administered intravenously on Days 1, 3 and 5 (qodx3).
The doses of the compounds were administered on Days 1, 2, 3, 4, and 7; Taxotere was administered on Days 1, 3 and 7.

Trichophyton rubrum = experiment: Antifungal susceptibility testing (NCCLS M38-A), MIC/MFC; assay type: cell-based
Procedure: Specifically, disclosed compounds were evaluated alongside commercially available microtubulin inhibitors as well as recognized antifungal agents.
as §2
The minimum lethal concentration (MLC) was determined by plating […] from the MIC concentration and each concentration above the MIC. […] When a MIC was obtained, a minimum fungicidal concentration (MFC) was determined to assess the fungistatic/fungicidal nature of the compound.

[12] = system: human prostate tumor cells; experiment: Induction of apoptosis, morphological changes; assay type: cell-based
Description: The characteristic signs of apoptotic cell death include cell membrane blebbing, disruption of nuclei, cell shrinkage and condensation and finally cell death, very distinctive from necrotic cell death. […] A similar finding was also clear in the treatment of HuVEC cells with KPU-2.

HT-29 human colon cells = experiment: Tumor cytotoxicity / cell growth inhibition assay, resazurin fluorescence, 48 h; assay type: cell-based
[13] = system: OVCAR-3 (human ovarian tumor); experiment: Cytotoxicity, resazurin; assay type: cell-based; details: Table 12, OVCAR-3 Ovary
Description: (§5) Cells were maintained at subconfluent densities in their respective culture media.

Cytotoxicity, resazurin = assay type: cell-based; details: human, CCD-27sk normal fibroblasts; Table 12; CCD-27sk Fibroblast
Description: as §5

[14] = system: PC-3 prostatic adenocarcinoma cells; experiment: Tumor cytotoxicity assay, resazurin fluorescence, 48 h; assay type: cell-based; details: Homo sapiens, Table 1
Procedure: 10× concentrated serial dilutions of the two compounds were prepared in appropriate culture medium for final concentrations ranging from 2.0×10^−5 M to 2.0×10^−10 M. Ten μl volumes of the 10× serial dilutions were added to the test wells in triplicate and the plates returned to the incubator for 48 hours.
Resazurin dye without cells was used to determine the background, which was subtracted from the data for all experimental wells. The data were analyzed using Prism software (GraphPad Software).
PC-3, a human prostate adenocarcinoma, was maintained in F12K complete medium (F12K medium supplemented with 10% FBS; 2 mM Glutamine; 1% HEPES; and Pen/Strep at 100 IU/ml and 100 μg/ml, respectively).
20 mM stock solutions of compounds were prepared in 100% DMSO and stored at −80° C. […] Ten μl volumes of the 10× serial dilutions were added to the test wells in triplicate and the plates returned to the incubator for 48 hours.

[15] = system: Trichophyton mentagrophytes; experiment: Antifungal susceptibility testing (NCCLS M38-A), MIC/MFC; assay type: cell-based
Procedure: as §1, §2, §3, §4

[16] = system: Jurkat cells (human T cell leukemia line); experiment: DNA fragmentation (DNA laddering) by gel electrophoresis; assay type: cell-based
Description: A late stage characteristic of apoptosis is internucleosomal DNA cleavage that results in a distinctive ladder pattern that can be visualized by gel electrophoresis.

COC1=CC(=O)C[C@@H](C)[C@]12Oc1c(Cl)c(OC)cc(OC)c1C2=O [griseofulvin, Griseofulvin]
MFC (Epidermophyton floccosum): 4 µg/mL (≈ 11.3 µM)

CC(C)(C)c1[nH]cnc1/C=c1\[nH]c(=O)/c(=C/c2ccccc2)[nH]c1=O [KPU-02]
tolerability ([1]; i.v. infusion 5-10 mg/kg): well tolerated | effect on tumor vasculature ([1]; single i.v. treatment): rapid collapse of the central vasculature | tumor blood flow, % of vehicle ([2]; 1 hour after administration): 23% | tumor blood flow, % vehicle ([2]; 24 hours): 59% | tubulin depolymerization in HuVEC cells (HuVEC cells; 200 nM, 30 min): rapidly induce tubulin depolymerization | effect on MT dynamic instability [3]: did not have a measurable effect on MT dynamic instability | tumor necrosis (P22 rat sarcoma): dose-dependent tumor necrosis

C=CC(C)(C)c1[nH]cnc1/C=c1\[nH]c(=O)/c(=C/c2ccccc2)[nH]c1=O [dehydroPLH, dehydrophenylahistin]
Z to E migration [4]: Z to E migration frequently occurs

CC(=O)O[C@H]1C(=O)[C@@]2(C)[C@H]([C@H](OC(=O)c3ccccc3)[C@]3(O)C[C@H](OC(=O)[C@H](O)[C@@H](NC(=O)c4ccccc4)c4ccccc4)C(C)=C1C3(C)C)[C@]1(OC(C)=O)CO[C@@H]1C[C@@H]2O [Taxol]
potency in resistant MES-SA/DX5 versus sensitive MES-SA line [5]: virtually inactive | IC50 ([5]; cyclosporin A pretreatment, Study II, read-out: MES-SA/DX5 Resistant, CsA Pretreat, IC50 nM): 40 nM | IC50 ([5]; no cyclosporin A, Study I, II, read-out: MES-SA/DX5 Resistant, No CsA, IC50 nM): > 24000 nM | HuVEC monolayer permeability (HuVEC monolayer): inactive | microtubule depolymerization in HuVEC cells (HuVEC cells): did not induce microtubule depolymerization

O=C1c2c(O)ccc(O)c2C(=O)c2c(NCCNCCO)ccc(NCCNCCO)c21 [mitoxantrone, Mitoxantrone]
reduced susceptibility of MES-SA/DX5 cell line ([5]; versus MES-SA): 20 fold | EC50 [6]: 42 nM | EC50 ([7]; Homo sapiens, HL60/MX2, Table 20, mean of two independent experiments, 48 hours): 1100 nM | loss of efficacy in the resistant HL-60/MX-2 cell line ([7]; versus HL-60, Example 10): 24 fold | times less active against resistant HL-60/MX2 cells ([7]; versus HL-60, Example 11): ~26 times

CC(C)(C)c1[nH]cnc1/C=c1\[nH]c(=O)/c(=C/c2ccccc2)[nH]c1=O [KPU-2, tBu-dehydrophenylahistin]
cleavage of PARP [8]: induced cleavage of PARP | inhibition of tumor growth [9]: significant inhibition of tumor growth in the combination therapy group | apparent TGI of combination therapy [10]: > 58% | IC50 against kinases inhibited >50% in primary screen [11]: low micromolar range | effect on estimated tumor growth with taxotere (MCF-7 human breast tumor): appeared to be the most effective | microtubule depolymerization in HuVEC cells (HuVEC cells): induced microtubule depolymerization | antifungal potency compared with griseofulvin (Trichophyton rubrum; dermatophyte isolates): equivalent in potency or in some cases more potent than griseofulvin | morphological changes of apoptosis [12]: induced the typical morphological changes associated with early stages of apoptosis | cytotoxic activity against HT-29 cells (HT-29 human colon cells): active in the low nanomolar range | IC50 [13]: > 20 nM | cytotoxicity at 48 h (Cytotoxicity, resazurin): 64.3%

C=CC(C)(C)c1[nH]cnc1/C=c1\[nH]c(=O)/c(=C/c2ccccc2)[nH]c1=O [KPU-1, Dehydrophenylahistin]
EC50 [14]: 5.4 nM | potency versus sensitive T. mentagrophytes isolate [15]: weaker but more comparable to the others | potency versus T. rubrum (Trichophyton rubrum): significantly less potent than the other compounds | DNA laddering, potency compared with KPU-2 [16]: much less potent
